What was measured:
B. subtilis 168 [1] = experiment: fitness (endpoint OD595 vs no drug) (fraction); higher = more growth
Procedure, shortened: (§1)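 Plates with 384 wells were inoculated at OD595 0.01 using 30 µl of TSB, LB Lennox or CY, or 55 µl for S. pneumoniae. Incubation was at 37 °C, with OD595 measured every 30 min for 14 h. Fitness is the stationary-phase transition optical density over the robust mean of no-drug control wells, after first-reading background subtraction; it is capped at 1.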

S. aureus DSM 20231 [2] = experiment: as above
Procedure, shortened: as §1

S. aureus Newman [3] = experiment: as above
Procedure, shortened: as §1

S. pneumoniae D39V [4] = experiment: as above
Procedure, shortened: as §1

B. subtilis 168 [5] = experiment: Bliss interaction score (quartile over a dose matrix) (fitness difference); higher = more antagonism (negative = synergy)
Procedure, shortened: (§2)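 Growth in each well was taken as OD595 at entry into stationary phase. Dividing by the plate's robust no-drug mean and capping at 1 gave fitness, and single-drug fitness was inferred from the combination data. The Bliss score, observed minus product-expected fitness, is summarised by quartiles over technical, biological and donor/recipient replicates.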

S. aureus DSM 20231 [6] = experiment: as above
Procedure, shortened: as §2

S. aureus Newman [7] = experiment: as above
Procedure, shortened: as §2

S. pneumoniae D39V [8] = experiment: as above
Procedure, shortened: as §2
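Throughout, for Bliss interaction score (quartile over a dose matrix): first quartile when negative (synergy) and third quartile when positive (antagonism).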

CCCCCCCCCC(=O)N[C@@H](Cc1c[nH]c2ccccc12)C(=O)N[C@H](CC(N)=O)C(=O)N[C@@H](CC(=O)O)C(=O)N[C@@H]1C(=O)NCC(=O)N[C@@H](CCCN)C(=O)N[C@@H](CC(=O)O)C(=O)N[C@H](C)C(=O)N[C@@H](CC(=O)O)C(=O)NCC(=O)N[C@H](CO)C(=O)N[C@@H]([C@H](C)CC(=O)O)C(=O)N[C@@H](CC(=O)c2ccccc2N)C(=O)O[C@@H]1C [Daptomycin] + COc1ccc(C[C@H](N)C(=O)N[C@H]2[C@@H](O)[C@H](n3cnc4c(N(C)C)ncnc43)O[C@@H]2CO)cc1 [Puromycin]
fitness
Conditions	first compound 0.125 µg/mL	first compound 0.25 µg/mL	first compound 0.5 µg/mL	first compound 1 µg/mL	first compound 2 µg/mL	first compound 4 µg/mL
B. subtilis 168 [1], partner 0.39 µg/mL	0.937	0.932	0.894	–	–	–
B. subtilis 168 [1], partner 0.78 µg/mL	0.912	0.91	0.864	–	–	–
B. subtilis 168 [1], partner 1.56 µg/mL	0.906	0.916	0.841	–	–	–
S. aureus DSM 20231 [2], partner 0.39 µg/mL	–	–	0.993	≥ 1	≥ 1	–
S. aureus DSM 20231 [2], partner 0.78 µg/mL	–	–	≥ 1	0.977	≥ 1	–
S. aureus DSM 20231 [2], partner 1.56 µg/mL	0.953	≥ 1	≥ 1	0.989	0.957	–
S. aureus Newman [3], partner 0.39 µg/mL	0.998	1	0.997	–	–	–
S. aureus Newman [3], partner 0.78 µg/mL	0.992	0.989	0.995	–	–	–
S. aureus Newman [3], partner 1.56 µg/mL	≥ 1	0.983	≥ 1	–	–	–
S. pneumoniae D39V [4], partner 1 µg/mL	–	–	–	0.939	0.969	0.922
S. pneumoniae D39V [4], partner 2 µg/mL	–	–	–	0.892	0.876	0.909
S. pneumoniae D39V [4], partner 4 µg/mL	–	–	–	0.32	–	–

fitness, one replicate
Conditions	partner 0.39 µg/mL	partner 0.78 µg/mL	partner 1.56 µg/mL	partner 3.12 µg/mL	partner 6.24 µg/mL
B. subtilis 168 [1], first compound 1 µg/mL	0.719	0.737	0.749	–	–
S. aureus DSM 20231 [2], first compound 0.125 µg/mL	0.935	≥ 1	–	0.968	0.865
S. aureus DSM 20231 [2], first compound 0.25 µg/mL	≥ 1	≥ 1	–	0.932	0.81
S. aureus DSM 20231 [2], first compound 0.5 µg/mL	–	–	–	0.962	0.762

Conditions	Bliss interaction score
B. subtilis 168 [5]	0.0496
S. aureus DSM 20231 [6]	0.0803
S. aureus Newman [7]	0.0477
S. pneumoniae D39V [8]	-0.0975

CCCCCCCCCC(=O)N[C@@H](Cc1c[nH]c2ccccc12)C(=O)N[C@H](CC(N)=O)C(=O)N[C@@H](CC(=O)O)C(=O)N[C@@H]1C(=O)NCC(=O)N[C@@H](CCCN)C(=O)N[C@@H](CC(=O)O)C(=O)N[C@H](C)C(=O)N[C@@H](CC(=O)O)C(=O)NCC(=O)N[C@H](CO)C(=O)N[C@@H]([C@H](C)CC(=O)O)C(=O)N[C@@H](CC(=O)c2ccccc2N)C(=O)O[C@@H]1C [Daptomycin] + COc1cccc2c1C(=O)c1c(O)c3c(c(O)c1C2=O)C[C@@](O)(C(=O)CO)C[C@@H]3O[C@H]1C[C@H](N)[C@H](O)[C@H](C)O1 [Doxorubicin]
Conditions	fitness
B. subtilis 168 [1], first compound 0.125 µg/mL, partner 0.625 µg/mL	0.93
B. subtilis 168 [1], first compound 0.125 µg/mL, partner 1.25 µg/mL	0.905
B. subtilis 168 [1], first compound 0.125 µg/mL, partner 2.5 µg/mL	0.628
B. subtilis 168 [1], first compound 0.25 µg/mL, partner 0.625 µg/mL	0.93
B. subtilis 168 [1], first compound 0.25 µg/mL, partner 1.25 µg/mL	0.911
B. subtilis 168 [1], first compound 0.5 µg/mL, partner 0.625 µg/mL	0.84
S. aureus DSM 20231 [2], first compound 0.5 µg/mL, partner 0.625 µg/mL	0.91
S. aureus DSM 20231 [2], first compound 0.5 µg/mL, partner 1.25 µg/mL	0.935
S. aureus DSM 20231 [2], first compound 0.5 µg/mL, partner 2.5 µg/mL	0.829
S. aureus DSM 20231 [2], first compound 1 µg/mL, partner 0.625 µg/mL	0.887
S. aureus DSM 20231 [2], first compound 1 µg/mL, partner 1.25 µg/mL	0.961
S. aureus DSM 20231 [2], first compound 1 µg/mL, partner 2.5 µg/mL	0.852
S. aureus DSM 20231 [2], first compound 2 µg/mL, partner 0.625 µg/mL	0.926
S. aureus DSM 20231 [2], first compound 2 µg/mL, partner 1.25 µg/mL	0.914
S. aureus DSM 20231 [2], first compound 2 µg/mL, partner 2.5 µg/mL	0.841
S. aureus Newman [3], first compound 0.125 µg/mL, partner 0.625 µg/mL	0.867
S. aureus Newman [3], first compound 0.125 µg/mL, partner 1.25 µg/mL	0.865
S. aureus Newman [3], first compound 0.125 µg/mL, partner 2.5 µg/mL	0.739
S. aureus Newman [3], first compound 0.25 µg/mL, partner 0.625 µg/mL	0.869
S. aureus Newman [3], first compound 0.25 µg/mL, partner 1.25 µg/mL	0.851
S. aureus Newman [3], first compound 0.25 µg/mL, partner 2.5 µg/mL	0.748
S. aureus Newman [3], first compound 0.5 µg/mL, partner 0.625 µg/mL	0.829
S. aureus Newman [3], first compound 0.5 µg/mL, partner 1.25 µg/mL	0.834
S. aureus Newman [3], first compound 0.5 µg/mL, partner 2.5 µg/mL	0.755
S. pneumoniae D39V [4], first compound 1 µg/mL, partner 0.25 µg/mL	0.86
S. pneumoniae D39V [4], first compound 1 µg/mL, partner 0.5 µg/mL	0.876
S. pneumoniae D39V [4], first compound 1 µg/mL, partner 1 µg/mL	0.669
S. pneumoniae D39V [4], first compound 2 µg/mL, partner 0.25 µg/mL	0.936
S. pneumoniae D39V [4], first compound 2 µg/mL, partner 0.5 µg/mL	0.875
S. pneumoniae D39V [4], first compound 2 µg/mL, partner 1 µg/mL	0.721
S. pneumoniae D39V [4], first compound 4 µg/mL, partner 1 µg/mL	0.686

B. subtilis 168 [1], first compound 1 µg/mL, one replicate
Conditions	fitness
partner 0.625 µg/mL	0.783
partner 1.25 µg/mL	0.645
partner 2.5 µg/mL	0.197

Conditions	Bliss interaction score
B. subtilis 168 [5]	0.0744
S. aureus DSM 20231 [6]	0.0493
S. aureus Newman [7]	-0.0594
S. pneumoniae D39V [8]	0.0772

Source: the supplement of paper PMC10627819
